Reference: patent US11186564B2, “Dual NAV1.2/5HT2a inhibitors for treating CNS disorders” (Sunovion Pharmaceuticals Inc., priority 2016, dated 2021)

How the values were obtained:
[1] = biological target: T1, recombinant human serotonin receptor 5-HT2A (Homo sapiens, UniProt P28223); test: 5-HT2A antagonist Ca2+ assay in CHO-K1 cells (method A aequorin luminescence / method B FLIPR fluorescence); type: cell-based; conditions: antagonist mode vs EC80 of reference agonist, method A or B, read-out: 5HT2A IC50
T1 construct: expressed in transfected cells; method B: loaded with Ca2+ dye
Method in brief: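 IC50 was obtained by nonlinear regression of percent inhibition of the EC80 agonist Ca2+ response in CHO-K1 cells stably expressing human 5-HT2A. The readout was aequorin luminescence with agonist injected 15 min after compound (A), or Ca2+-dye fluorescence on FLIPR with serotonin as agonist (B).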

[2] = biological target: human sodium channel NaV1.2 (Homo sapiens, UniProt Q99250); test: NaV1.2 inhibition, automated patch-clamp (Q-Patch HTX), slow inactivated state (state C); type: cell-based; conditions: hNaV1.2 CHO cells, slow inactivated state; for inhibition at 1 µM: 1 μM compound, read-out: NaV1.2 (% inh), 1 μM; for inhibition at 10 µM: 10 μM compound, read-out: NaV1.2 (% inh), 10 μM; for IC50: read-out: NaV1.2 IC50
Method in brief: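 IC50 comes from a least-squares fit of percent inhibition, relative to vehicle, of current in the slow-inactivated state. That state is reached by a 10 s prepulse to −50 mV, then 15 ms at −90 mV, then a 5 ms test pulse to 0 mV. Human NaV1.2 in stable CHO K-1 cells, held at −100 mV, automated patch clamp.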

human sodium channel NaV1.2, sequence (Q99250 whole entry): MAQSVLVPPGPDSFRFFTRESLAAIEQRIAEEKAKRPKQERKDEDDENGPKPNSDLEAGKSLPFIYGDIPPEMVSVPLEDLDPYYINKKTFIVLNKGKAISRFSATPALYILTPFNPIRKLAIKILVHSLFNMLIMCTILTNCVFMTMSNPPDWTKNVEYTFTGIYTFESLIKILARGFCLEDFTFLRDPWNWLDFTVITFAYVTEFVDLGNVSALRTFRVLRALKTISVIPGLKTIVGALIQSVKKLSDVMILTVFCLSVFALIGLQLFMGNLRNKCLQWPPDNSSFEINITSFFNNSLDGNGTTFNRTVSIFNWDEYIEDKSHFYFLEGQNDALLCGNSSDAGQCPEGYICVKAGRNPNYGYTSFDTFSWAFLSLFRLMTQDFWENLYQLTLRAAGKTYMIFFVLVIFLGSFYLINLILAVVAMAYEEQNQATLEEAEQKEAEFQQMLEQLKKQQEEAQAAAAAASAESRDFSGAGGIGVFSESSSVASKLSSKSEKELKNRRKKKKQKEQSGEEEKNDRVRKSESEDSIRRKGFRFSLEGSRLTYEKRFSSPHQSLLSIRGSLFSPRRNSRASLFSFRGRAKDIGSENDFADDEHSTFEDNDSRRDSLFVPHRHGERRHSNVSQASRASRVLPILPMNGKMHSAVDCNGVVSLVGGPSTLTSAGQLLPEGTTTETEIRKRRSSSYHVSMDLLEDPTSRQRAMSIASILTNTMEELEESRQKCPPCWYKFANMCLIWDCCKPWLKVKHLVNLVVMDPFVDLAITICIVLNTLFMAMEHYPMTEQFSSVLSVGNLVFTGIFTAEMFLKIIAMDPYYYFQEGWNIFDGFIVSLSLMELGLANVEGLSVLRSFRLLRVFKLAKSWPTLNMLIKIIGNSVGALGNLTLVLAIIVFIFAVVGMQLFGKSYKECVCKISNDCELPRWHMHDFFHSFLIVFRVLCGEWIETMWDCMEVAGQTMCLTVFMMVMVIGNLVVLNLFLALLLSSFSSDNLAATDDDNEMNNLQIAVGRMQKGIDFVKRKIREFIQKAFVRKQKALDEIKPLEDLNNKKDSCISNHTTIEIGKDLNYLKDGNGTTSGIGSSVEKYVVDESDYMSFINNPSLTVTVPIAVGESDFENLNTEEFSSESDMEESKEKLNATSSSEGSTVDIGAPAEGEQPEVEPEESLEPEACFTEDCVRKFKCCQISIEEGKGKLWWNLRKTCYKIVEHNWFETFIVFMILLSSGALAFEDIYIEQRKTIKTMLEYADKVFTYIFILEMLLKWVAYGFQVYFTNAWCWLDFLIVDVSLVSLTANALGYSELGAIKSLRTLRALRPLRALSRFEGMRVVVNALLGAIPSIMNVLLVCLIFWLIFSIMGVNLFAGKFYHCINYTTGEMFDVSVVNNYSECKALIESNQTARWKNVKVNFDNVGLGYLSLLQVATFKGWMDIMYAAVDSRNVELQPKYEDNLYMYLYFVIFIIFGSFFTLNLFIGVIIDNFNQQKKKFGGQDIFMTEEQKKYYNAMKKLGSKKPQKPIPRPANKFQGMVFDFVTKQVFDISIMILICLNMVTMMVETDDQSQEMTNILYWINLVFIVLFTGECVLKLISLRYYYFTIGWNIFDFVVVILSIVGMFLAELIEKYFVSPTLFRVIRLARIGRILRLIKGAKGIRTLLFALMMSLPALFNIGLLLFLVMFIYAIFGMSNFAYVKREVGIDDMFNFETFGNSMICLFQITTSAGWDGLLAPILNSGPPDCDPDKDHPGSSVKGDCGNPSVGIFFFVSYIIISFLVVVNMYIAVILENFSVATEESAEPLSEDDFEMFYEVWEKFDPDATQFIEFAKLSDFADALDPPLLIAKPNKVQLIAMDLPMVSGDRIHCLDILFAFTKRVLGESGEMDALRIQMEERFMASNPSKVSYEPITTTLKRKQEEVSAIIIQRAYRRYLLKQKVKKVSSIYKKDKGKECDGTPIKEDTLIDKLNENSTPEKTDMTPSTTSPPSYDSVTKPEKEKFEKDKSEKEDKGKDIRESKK
T1 sequence (P28223 whole entry): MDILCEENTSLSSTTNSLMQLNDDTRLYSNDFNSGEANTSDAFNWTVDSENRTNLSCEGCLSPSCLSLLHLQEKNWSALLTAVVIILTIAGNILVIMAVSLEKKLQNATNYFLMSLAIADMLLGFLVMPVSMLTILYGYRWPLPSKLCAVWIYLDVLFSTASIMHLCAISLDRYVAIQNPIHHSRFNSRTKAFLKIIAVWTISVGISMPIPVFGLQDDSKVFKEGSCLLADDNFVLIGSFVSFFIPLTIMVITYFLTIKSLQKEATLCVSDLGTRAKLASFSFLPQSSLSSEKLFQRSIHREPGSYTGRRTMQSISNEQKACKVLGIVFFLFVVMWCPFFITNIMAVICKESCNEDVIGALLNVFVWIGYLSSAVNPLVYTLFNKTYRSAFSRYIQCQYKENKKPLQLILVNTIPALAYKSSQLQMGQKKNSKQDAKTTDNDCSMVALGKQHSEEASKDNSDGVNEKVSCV

| inhibition at 1 µM [2] [%] | inhibition at 10 µM [2] [%] | SMILES | IC50 [1] [µM] | IC50 [2] [µM] |
| --- | --- | --- | --- | --- |
|  | 88 | COc1cccc(CCCN2CCC(Oc3ccccc3)CC2)c1 [Example 225, 1-(3-(3-methoxyphenyl)propyl)-4-phenoxypiperidine] | 0.25 |  |
|  | 15 | O=C1c2ccccc2CCN1CCN1CCC(Oc2cccnc2)CC1 [Example 192, 2-(2-(4-(pyridin-3-yloxy)piperidin-1-yl)ethyl)-3,4-dihydroisoquinolin-1(2H)-one] | 2.84 |  |
| 10 |  | N#Cc1ccccc1OC1CCN(CC2Cc3cccnc3C2)CC1 (stereo not shown) [Example 138, 2-((1-((6,7-dihydro-5H-cyclopenta[b]pyridin-6-yl)methyl)piperidin-4-yl)oxy) benzonitrile] | 0.13 |  |
| 7 |  | c1ccc2c(c1)CCC2CN1CCC2(CCc3cccnc3O2)CC1 (stereo not shown) [Example 406, 1-((2,3-dihydro-1H-inden-1-yl)methyl)-3′,4′-dihydrospiro[piperidine-4,2′-pyrano[2,3-b]pyridine]] | 0.04 |  |
|  | 92 | OC(COc1ccccc1)CN1CCC2(CC1)Cc1ccccc1O2 (stereo not shown) [Example 399, 1-phenoxy-3-(3H-spiro[benzofuran-2,4′-piperidin]-1′-yl)propan-2-ol] | 1.83 |  |
| 6 |  | c1ccc2c(c1)CCC1(CCN(CCC3Cc4cccnc4C3)CC1)O2 (stereo not shown) [Example 419, 1′-(2-(6,7-dihydro-5H-cyclopenta[b]pyridin-6-yl)ethyl)spiro[chromane-2,4′-piperidine]] | 0.22 |  |
|  |  | Fc1ccc(OC2CCN(CC3CCOc4ccccc43)CC2)cc1 (stereo not shown) [Example 165, 1-(chroman-4-ylmethyl)-4-(4-fluorophenoxy)piperidine] | 0.02 | 0.91 |
|  |  | c1ccc(O[C@@H]2COC3(CCN(C[C@H]4CCc5ccccc54)CC3)C2)cc1 (single isomer, unassigned) [Compound 384] | 0.3 | 0.29 |
| 14 |  | c1ccc2c(c1)CCC2CN1CCC2(CCc3cnccc3O2)CC1 (stereo not shown) [Example 404, 1-((2,3-dihydro-1H-inden-1-yl)methyl)-3′,4′-dihydrospiro[piperidine-4,2′-pyrano[3,2-c]pyridine]] | 0.11 |  |
|  |  | COc1ccc2c(c1)C(CN1CCC(OCc3ccc(F)cc3)CC1)CC2 (stereo not shown) [Example 247, 4-((4-fluorobenzyl)oxy)-1-((6-methoxy-2,3-dihydro-1H-inden-1-yl)methyl)piperidine] | 0.1 | 0.27 |
|  |  | OC(COC1CCCCC1)CN1[C@@H]2C[C@H]1CN(c1ccccc1)C2 (stereo partly drawn) [Example 281, 1-(cyclohexyloxy)-3-((1R,5S)-3-phenyl-3,6-diazabicyclo[3.1.1]heptan-6-yl)propan-2-ol] | 1.36 | 1.79 |
|  |  | O[C@@H](COC1CCCCC1)CN1CCC2(CCN(c3ccccc3)C2)C1 (stereo partly drawn) [Example 346, (2R)-1-(cyclohexyloxy)-3-(7-phenyl-2,7-diazaspiro[4.4]nonan-2-yl)propan-2-ol] | 0.27 | 0.32 |
|  | 72 | c1ccc(OC2CCN(CCO[C@@H]3CCc4ccccc43)CC2)cc1 [Example 218, (R)-1-(2-((2,3-dihydro-1H-inden-1-yl)oxy)ethyl)-4-phenoxypiperidine] | 0.44 |  |
|  |  | Fc1ccc(OC2CCN(CC3CCc4cccc(F)c43)CC2)cc1 (stereo not shown) [Example 119, 1-((7-fluoro-2,3-dihydro-1H-inden-1-yl)methyl)-4-(4-fluorophenoxy)piperidine] | 0.02 | 0.18 |
|  |  | OC(COC1CCCCC1)CN1CCC2(CCN(c3ccccc3)C2)C1 (stereo not shown) [Example 344, 1-(cyclohexyloxy)-3-(7-phenyl-2,7-diazaspiro[4.4]nonan-2-yl)propan-2-ol] | 0.11 | 0.43 |
| 18 | 52 | O=C1c2ccccc2CCN1CCN1CCC(Oc2ccccc2)CC1 [Example 191, 2-(2-(4-phenoxypiperidin-1-yl)ethyl)-3,4-dihydroisoquinolin-1(2H)-one] | 0.05 |  |

| inhibition at 1 µM [2] [%] | inhibition at 10 µM [2] [%] | SMILES | IC50 [1] [µM] | IC50 [2] [µM] |
| --- | --- | --- | --- | --- |
|  |  | Fc1ccc(OC2CCN(CCC3CCc4cccnc43)CC2)cc1 (stereo not shown) [Example 175, 7-(2-(4-(4-fluorophenoxy)piperidin-1-yl)ethyl)-6,7-dihydro-5H-cyclopenta[b]pyridine] | 0.01 | 0.44 |
|  |  | c1ccc(C2COC3(CCN(CC4CCc5ccccc54)CC3)C2)cc1 (single isomer, unassigned) [Example 375, 8-((2,3-dihydro-1H-inden-1-yl)methyl)-3-phenyl-1-oxa-8-azaspiro[4,5]decane] | 0.26 | 0.35 |
| 3 |  | OC1(CN2CC[C@H](Oc3ccc(F)cc3)C2)COCc2ccccc21 (stereo partly drawn) [Example 10, 4-(((S)-3-(4-fluorophenoxy)pyrrolidin-1-yl)methyl)isochroman-4-ol] | 0.31 |  |
|  |  | O[C@@H](CO[C@@H]1CCCc2ccccc21)CN1CC[C@@H](Oc2ccc(F)cc2)C1 [Example 53, (R)-1-((R)-3-(4-fluorophenoxy)pyrrolidin-1-yl)-3-(((R)-1,2,3,4-tetrahydronaphthalen-1-yl)oxy)propan-2-ol] | 0.23 | 1.93 |
| 1 |  | COc1ccc2c(c1)C(CN1CCC(Oc3ccncc3)CC1)CC2 (stereo not shown) [Example 117, 4-((1-((6-methoxy-2,3-dihydro-1H-inden-1-yl)methyl)piperidin-4-yl)oxy)pyridine] | 0.58 |  |
|  |  | COc1ccccc1OC1CCN(CC2CCc3ccccc32)CC1(C)C (stereo not shown) [Example 103, 1-((2,3-dihydro-1H-inden-1-yl)methyl)-4-(2-methoxyphenoxy)-3,3-dimethylpiperidine] | 0.22 | 3.13 |
|  |  | O[C@H](CO[C@@H]1CCCc2ccccc21)CN1CC[C@@H](Oc2ccc(F)cc2)C1 [Example 52, (S)-1-((R)-3-(4-fluorophenoxy)pyrrolidin-1-yl)-3-(((R)-1,2,3,4-tetrahydronaphthalen-1-yl)oxy)propan-2-ol] | 0.14 | 1.69 |
| 16 |  | c1ccc(C2COC3(C2)CN(CC2CCc4ccccc42)C3)cc1 (stereo not shown) [Example 359, 2-((2,3-dihydro-1H-inden-1-yl)methyl)-7-phenyl-5-oxa-2-azaspiro[3.4]octane] | 0.55 |  |
| 14 |  | Fc1ccc(OC2CCN(CC3COc4ccccc43)CC2)cc1 (stereo not shown) [Example 134, 1-((2,3-dihydrobenzofuran-3-yl)methyl)-4-(4-fluorophenoxy)piperidine] | 0.02 |  |
|  |  | COc1ccc2c(c1)C(CN1CC[C@@H]3C[C@H]1CN3c1ccccc1)CC2 (stereo partly drawn) [Example 319, (1S,5R)-2-((6-methoxy-2,3-dihydro-1H-inden-1-yl)methyl)-6-phenyl-2,6-diazabicyclo[3.2.1]octane] | 1.21 | 0.04 |
|  |  | COc1ccccc1N1CCN(CC(O)COc2cccc3ccccc23)CC1 (stereo not shown) [Example 92, 1-(4-(2-methoxyphenyl)piperazin-1-yl)-3-(naphthalen-1-yloxy)propan-2-ol] | 0.23 | 0.01 |
|  | 66 | O=C1c2ccccc2CCN1CCN1CCC(Oc2cccc(F)c2)CC1 [Example 193, 2-(2-(4-(3-fluorophenoxy)piperidin-1-yl)ethyl)-3,4-dihydroisoquinolin-1(2H)-one] | 0.33 |  |
|  |  | COc1ccccc1O[C@H]1CCN(CC2Cc3ccccc3C2)[C@H](C)C1 [Example 141, (2R,4S)-1-((2,3-dihydro-1H-inden-2-yl)methyl)-4-(2-methoxyphenoxy)-2-methylpiperidine] | 0.2 | 1.01 |
|  |  | c1ccc(OC2CCN(CCC3COCc4ccccc43)CC2)cc1 (stereo not shown) [Example 179, 1-(2-(isochroman-4-yl)ethyl)-4-phenoxypiperidine] | 0.06 | 0.61 |
| 14 |  | COc1ccccc1O[C@H]1CCN(CC2Cc3cccnc3C2)[C@@H](C)C1 (stereo partly drawn) [Example 150, 6-(((2S,4S)-4-(2-methoxyphenoxy)-2-methylpiperidin-1-yl)methyl)-6,7-dihydro-5H-cyclopenta[b]pyridine] | 0.72 |  |

| SMILES | inhibition at 1 µM [2] [%] | inhibition at 10 µM [2] [%] | IC50 [1] [µM] | IC50 [2] [µM] |
| --- | --- | --- | --- | --- |
| O[C@@H](CO[C@H]1CCCc2ccccc21)CN1CCN(Cc2ccccc2)CC1 [Example 85, (R)-1-(4-benzylpiperazin-1-yl)-3-(((S)-1,2,3,4-tetrahydronaphthalen-1-yl)oxy)propan-2-ol] | 24 |  | > 11.9 |  |
| c1ccc(N2[C@@H]3CC[C@H]2CN(CC2CCc4ccccc42)C3)cc1 (stereo partly drawn) [Example 295, (1R,5S)-3-((2,3-dihydro-1H-inden-1-yl)methyl)-8-phenyl-3,8-diazabicyclo[3.2.1]octane] | 2 |  | > 16.7 |  |
| OC(COC1CCCCC1)CN1C[C@H]2C[C@@H](C1)N2c1ccccc1 (stereo partly drawn) [Example 294, 1-(cyclohexyloxy)-3-((1R,5S)-6-phenyl-3,6-diazabicyclo[3.1.1]heptan-3-yl)propan-2-ol] |  | 47 | 0.28 |  |
| O[C@H](CO[C@@H]1CCc2ccccc21)CN1CC[C@@H](Oc2ccc(F)cc2)C1 [Example 46, (S)-1-(((R)-2,3-dihydro-1H-inden-1-yl)oxy)-3-((R)-3-(4-fluorophenoxy)pyrrolidin-1-yl)propan-2-ol] | 41 |  | 0.03 |  |
| O[C@@H](COc1ccccc1)CN1CCC2(CCc3ccccc3O2)CC1 [Example 441, (R)-1-phenoxy-3-(spiro[chromane-2,4′-piperidin]-1′-yl)propan-2-ol] | 17 |  | 0.03 |  |
